For data set [1], the system named is Langerhans cell histiocytosis, multisystem disease. The conditions noted are these: in combination with a single dose of methylprednisolone; cited from earlier work.
Data set [2] has as its system venolymphatic malformation. The data set can be described thus: Case report: topical 1% sirolimus cream in venolymphatic malformation. The format is in vivo, human. An excerpt: A person presented with a birthmark on the left thigh, present since birth. […] Clinically, it appeared most consistent with a mixed venolymphatic malformation, possibly with a small capillary component to it. Over the last few years, it began scabbing and occasionally bleeding at the surface. The deeper areas sometimes caused a throbbing pain. A decision was made to start treatment with topical 1% sirolimus cream twice a day. After 1.5 to 2 months treatment, the birthmark started to improve. Before starting topical sirolimus, they had painful episodes (6/10 severity) 2-3× per week that lasted 15-20 minutes. […] Additionally, overall the lesion was much flatter since starting the topical sirolimus. Their quality of life improved now that they were is in much less pain.
Previous reports have shown effectiveness of oral sirolimus in the treatment of venolymphatic malformations; however, to the best of inventor's knowledge, topical treatment has never been reported. This patient's venolymphatic malformation improved both symptomatically and improved in appearance with topical 1% rapamycin treatment. […] Additionally, inventor expects that all superficial or cutaneous vascular malformations and cutaenous vascular conditions would respond to treatment with topical mTOR inhibitor.

A further data set has as its system keloids. Put plainly: Case report: 1% topical rapamycin on keloidal, contracted burn scar. The format is in vivo, human. The conditions noted are these: 1% topical rapamycin one to two times a day on thigh scar. An excerpt:
As an adjuvant treatment, they treated their worst keloidal, contracted scar on their thigh with 1% topical rapamycin one to two times a day.

Data set [3] deals with capillary malformation-arteriovenous malformation (CM-AVM) syndrome. Put plainly: Case report: topical 1% rapamycin cream in CM-AVM syndrome. The following applies: topical 1% rapamycin cream twice a day to the face. The data set is classed as in vivo, human. The text has this:
A person presented with several well demarcated pink to slightly tan patches with perilesional halos/rims of pallor scattered on their body, including one on their face. Many of those birthmarks were present since birth or at least since a very young age. The patient's parent also had similar-appearing birthmarks. The patient was otherwise well. Genetic testing confirmed a pathogenic variant identified in RASA1 gene consistent with capillary malformation-arteriovenous malformation (CM-AVM) syndrome. Per the patient and their parent's interest in a topical treatment, off-label use of topical 1% rapamycin cream was used twice a day to the lesion on the face.

In data set [4] the test system is confluent and reticulated papillomatosis (CARP). Put plainly: Case report: topical 1% rapamycin cream in confluent and reticulated papillomatosis. The data set is classed as in vivo, human. The conditions noted are these: 1% rapamycin cream twice a day for 3 months. An excerpt:
FIG. 1A is a photographic image of the chest of a patient afflicted with confluent and reticulated papillomatosis (CARP) before starting 3 months' treatment with topically applied 1% rapamycin (sirolimus).
FIG. 1B is a photographic image of the chest of the patient in FIG. 1A following 3 months' treatment with topically applied 1% rapamycin (sirolimus).
A person was initially diagnosed with CARP in October 2015 when they presented with numerous hyperpigmented, slightly velvety macules with a fine overlying scale coalescing into reticulated and confluent patches on their chest, neck, and upper back. […] They then embarked upon a course of topical 1% rapamycin cream applied to affected areas twice a day for 3 months. […] Pre- and post treatment photographs are presented as FIGS. 1A and 1B, respectively.

Data set [5] can be described thus: Sirolimus blood levels during topical treatment of the non-LCH patient. The format is in vivo, human. The following applies: at 1 month; topical rapamycin (1%) ointment to left face. An excerpt:
Topical rapamycin (1%) compounded in ointment was initiated to the left face with the right face serving as a control. Sirolimus blood levels were negative at 1 month.

For data set [6] the following is noted: cited from earlier work.

With `COc1cc([C@@H]2c3cc4c(cc3[C@@H](O[C@@H]3O[C@@H]5CO[C@@H](C)O[C@H]5[C@H](O)[C@H]3O)[C@H]3COC(=O)[C@H]23)OCO4)cc(OC)c1O` [etoposide], in data set [1], the disease response is given as 65%, the reactivation is listed as 55%, the survival is 83% and the toxicity is on record as 58%.
Take `CO[C@H]1C[C@@H]2CC[C@@H](C)[C@@](O)(O2)C(=O)C(=O)N2CCCC[C@H]2C(=O)O[C@H]([C@H](C)C[C@@H]2CC[C@@H](O)[C@H](OC)C2)CC(=O)[C@H](C)/C=C(\C)[C@@H](O)[C@@H](OC)C(=O)[C@H](C)C[C@H](C)/C=C/C=C/C=C/1C` [sirolimus, Sirolimus]: the “duration of pain episode” value in data set [2] (after 1-2 months of topical 1% sirolimus, before treatment 15-20 minutes) is “about 10 minutes”. Further, the “treatment time until the birthmark started to improve” value in data set [2] (person, topical 1% sirolimus cream twice a day) fell in the range of 1.5 to 2 months. For the same compound, the tolerability entry in the data set on keloids is on record as “tolerated the treatment well without any known side effects”; in data set [3] it was “tolerated well without side effects”. The “local tolerability at the site of application” value in data set [4] is recorded as “denied having any itching, burning, or pain”. Besides, in data set [5], the Sirolimus blood levels result is “negative”. Also, the water solubility entry in data set [6] is “poorly water soluble”.
`CC[C@]1(O)C[C@@H]2CN(CCc3c([nH]c4ccccc34)[C@@](C(=O)OC)(c3cc4c(cc3OC)N(C)[C@H]3[C@@](O)(C(=O)OC)[C@H](OC(C)=O)[C@]5(CC)C=CCN6CC[C@]43[C@@H]65)C2)C1` [vinblastine]: in data set [1], the disease response is 58%, the reactivation is given as 61%, the survival is 76% and the toxicity is reported as 47%.

Values taken from patent US20210137897A1, “TOPICAL mTOR INHIBITORS FOR CUTANEOUS PROLIFERATIVE AND VASCULAR CONDITIONS” (GEORGETOWN UNIVERSITY, priority 2019, published 2021).
